Measurements reported in US20220071932A1, “Compositions and Methods Against Stress-Induced Affective Disorders and Their Associated Symptoms” (The Trustees of Columbia University in the City of New York, priority 2019, published 2022).

Columns and labels:
[1] = system: NR2A subunit of the NMDAR; assay: Western blotting of hippocampus after fear memory recall; assay type: in vivo, mice; details: one week prior to CFC, (R,S)-ketamine 30 mg/kg, FENM 20 mg/kg, vs saline
Procedure: Samples from mouse hippocampus and prefrontal cortex were dissected, snap frozen, and stored at −80° C. Brain tissue was homogenized in RIPA buffer with protease inhibitor (Thermo Fisher Scientific, Waltham, Mass.; Roche, Basel, Switzerland) using a motorized pestle mixer (Argos Technologies, Vernon Hills, Ill.) and spun at 1000 g×14 minutes to remove cell debris. Protein concentration was determined using a Bradford protein assay (Bio-Rad, Hercules, Calif.). 4× Laemmli buffer and β-mercaptoethanol (Bio-Rad, Hercules, Calif.) was added to the samples, which were then boiled at 90° C. for five minutes. 50 μg of each sample was separated by SDS/PAGE, and proteins were transferred onto PVDF membrane (GE Healthcare Life Sciences, Marlborough, Mass.). Membranes were then blocked in 1×TBS with 0.1% Tween-20 and 5% BSA for 1 hr at RT. Incubation with primary antibodies was performed at 4° C. overnight (rabbit anti-β-tubulin, 1:10000, Abc am, Cambridge, UK, ab6046; rabbit anti-NR2A, 1:1000, Alomone Labs, Jerusalem, Israel, AGC-002; rabbit anti-NR2B, 1:600, Alomone Labs, Jerusalem, Israel, AGC-003; mouse anti-GluR1, 1:1000, Millipore Sigma, Burlington, Mass., MAB2263) in 1×TBS with 0.1% Tween-20 and 5% BSA. […]

129S6/SvEv mice [2] = assay: Forced swim test (FST); immobility time; assay type: in vivo; details: for p, Fisher's PLSD Saline vs. drug, FST Day 2 Immobility Time (sec): drug 1 week before stress; for Behavior: Depressive-like: dose 30 mg/kg
Procedure: The FST was administered as previously described (47). Briefly, mice were placed into clear plastic buckets 20 cm in diameter and 23 cm deep filled ⅔ of the way with 22° C. water. Mice were videotaped from the side for 6 min and were exposed to the swim test on 2 consecutive days Immobility time was scored by an experimenter blind to the experimental groups.

129S6/SvEv mice [3] = assay: Open field (OF); assay type: in vivo; details: for distance travelled in the OF / time spent in the center of the OF arena: vs saline
Procedure: The OF assay was administered as previously described (47). Briefly, motor activity was quantified in 4 Plexiglas open field boxes 43×43 cm^2 (MED Associates, Georgia, Vt.). Two sets of 16 pulse-modulated infrared photobeams on opposite walls 2.5-cm apart recorded x-y ambulatory movements. Activity chambers were computer interfaced for data sampling at 100-ms resolution. The computer defined grid lines that dividing center and surround regions, with the center square consisting of four lines 11 cm from the wall.

[4] = 30 mg/kg, drug 5 minutes after stress, FIG. 2F
[5] = Saline vs. (R,S)-ketamine (30 mg/kg), FIG. 8H
[6] = 1 week prior to CFC, (R,S)-ketamine 30 mg/kg, FENM 10, 20 or 30 mg/kg
[7] = 5 min prior to CFC, (R,S)-ketamine 30 mg/kg, FENM 20 mg/kg
[8] = Fisher's PLSD, drug 5 minutes after stress, FENM 20 mg/kg, (R,S)-ketamine 30 mg/kg
[9] = Saline vs. (R,S)-ketamine (30 mg/kg), cohort 5 min before re-exposure 1, FIG. 9L

CNC1(c2ccccc2Cl)CCCCC1=O (racemic) [(R,S)-ketamine, reference compound]
NR2A expression in the hippocampus [1]: comparable | p, Fisher's PLSD Saline vs. drug, FST Day 2 Immobility Time (sec) (129S6/SvEv mice [2]; 30 mg/kg, after ANOVA, FIG. 1G): 0.0007 | p, Fisher's PLSD Saline vs. drug, FST Day 2 Immobility Time (sec) (129S6/SvEv mice [2]; 30 mg/kg, after RMANOVA, FIG. 1F): 0.0003 | p, Fisher's PLSD Saline vs. drug, FST Day 2 Immobility Time Min 1 (s) (129S6/SvEv mice [2]; [4]): 0.7994 | p, Fisher's PLSD Saline vs. drug, FST Day 2 Immobility Time Min 2 (s) (129S6/SvEv mice [2]; [4]): 0.0125 | p, Fisher's PLSD Saline vs. drug, FST Day 2 Immobility Time Min 3 (s) (129S6/SvEv mice [2]; [4]): 0.8598 | p, Fisher's PLSD Saline vs. drug, FST Day 2 Immobility Time Min 4 (s) (129S6/SvEv mice [2]; [4]): 0.2874 | p, Fisher's PLSD Saline vs. drug, FST Day 2 Immobility Time Min 5 (s) (129S6/SvEv mice [2]; [4]): 0.6526 | p, Fisher's PLSD Saline vs. drug, FST Day 2 Immobility Time Min 6 (s) (129S6/SvEv mice [2]; [4]): 0.1586 | p, Fisher's PLSD Saline vs. drug, FST Day 2 Immobility Time (s) (129S6/SvEv mice [2]; 30 mg/kg, drug 5 minutes after stress, after ANOVA, FIG. 2G): 0.0466 | immobility time, day 2 of the FST (129S6/SvEv mice [2]; 5 min prior to CFC, (R,S)-ketamine 30 mg/kg, FENM 20 mg/kg, vs saline): significantly decreased immobility time | Behavior: Depressive-like (129S6/SvEv mice [2]; Antidepressant (5 min after stress)): ↓ | p, Immobility Time (s), FST Day 2, Saline vs. drug (129S6/SvEv mice [2]; Fisher's PLSD after ANOVA, drug 5 minutes after stress, FENM 20 mg/kg, (R,S)-ketamine 30 mg/kg, FIG. 3K): 0.6082 | p, Immobility Time (s), FST Day 2, Saline vs. drug (129S6/SvEv mice [2]; Fisher's PLSD after RMANOVA, drug 5 minutes after stress, FENM 20 mg/kg, (R,S)-ketamine 30 mg/kg, FIG. 3J): 0.8125 | Behavior: Depressive-like (129S6/SvEv mice [2]; Prophylactic (5 min before stress)): ↓ | Behavior: Depressive-like (129S6/SvEv mice [2]; Prophylactic (7 days before stress)): ↓ | Forced Swim Test Day 1, Immobility Time Min 1 (sec), p (Fisher's LSD) (129S6/SvEv mice [2]; [5]): 0.0026 | Forced Swim Test Day 1, Immobility Time Min 2 (sec), p (Fisher's LSD) (129S6/SvEv mice [2]; [5]): 0.2638 | Forced Swim Test Day 1, Immobility Time Min 3 (sec), p (Fisher's LSD) (129S6/SvEv mice [2]; [5]): 0.2171 | Forced Swim Test Day 1, Immobility Time Min 4 (sec), p (Fisher's LSD) (129S6/SvEv mice [2]; [5]): 0.6849 | Forced Swim Test Day 1, Immobility Time Min 5 (sec), p (Fisher's LSD) (129S6/SvEv mice [2]; [5]): 0.2114 | Forced Swim Test Day 1, Immobility Time Min 6 (sec), p (Fisher's LSD) (129S6/SvEv mice [2]; [5]): 0.0499 | Forced Swim Test Day 2, Immobility Time (sec), p (Fisher's LSD) (129S6/SvEv mice [2]; Saline vs. (R,S)-ketamine (30 mg/kg), after ANOVA, FIG. 8K): 0.0046 | Forced Swim Test Day 2, Immobility Time (sec), p (Fisher's LSD) (129S6/SvEv mice [2]; Saline vs. (R,S)-ketamine (30 mg/kg), after RMANOVA, FIG. 8J): 0.0036 | distance travelled in the OF (129S6/SvEv mice [3]; [6]): did not alter | time spent in the center of the OF arena (129S6/SvEv mice [3]; [6]): did not alter | distance travelled in the OF (129S6/SvEv mice [3]; [7]): did not alter | time spent in the center of the OF arena (129S6/SvEv mice [3]; [7]): did not alter | p, Distance Travelled (cm), OF, Saline vs. drug (129S6/SvEv mice [3]; Fisher's PLSD after RMANOVA, drug 5 minutes after stress, FENM 20 mg/kg, (R,S)-ketamine 30 mg/kg, FIG. 3L): 0.9319 | p, Distance Travelled Min 1 (cm), OF, Saline vs. drug (129S6/SvEv mice [3]; [8]): 0.0589 | p, Distance Travelled Min 2 (cm), OF, Saline vs. drug (129S6/SvEv mice [3]; [8]): 0.0098 | p, Distance Travelled Min 3 (cm), OF, Saline vs. drug (129S6/SvEv mice [3]; [8]): 0.1586 | p, Distance Travelled Min 4 (cm), OF, Saline vs. drug (129S6/SvEv mice [3]; [8]): 0.6504 | p, Distance Travelled Min 5 (cm), OF, Saline vs. drug (129S6/SvEv mice [3]; [8]): 0.3454 | p, Distance Travelled Min 6 (cm), OF, Saline vs. drug (129S6/SvEv mice [3]; [8]): 0.7410 | p, Distance Travelled Min 7 (cm), OF, Saline vs. drug (129S6/SvEv mice [3]; [8]): 0.1344 | p, Distance Travelled Min 8 (cm), OF, Saline vs. drug (129S6/SvEv mice [3]; [8]): 0.1467 | p, Distance Travelled Min 9 (cm), OF, Saline vs. drug (129S6/SvEv mice [3]; [8]): 0.0061 | p, Distance Travelled Min 10 (cm), OF, Saline vs. drug (129S6/SvEv mice [3]; [8]): 0.4667 | Open Field, Distance Travelled Min 1 (cm), p (Fisher's LSD) (129S6/SvEv mice [3]; [9]): 0.3306 | Open Field, Distance Travelled Min 2 (cm), p (Fisher's LSD) (129S6/SvEv mice [3]; [9]): 0.5200
